Laboratory results published in patent US12661338B2, “Heterocyclic compounds as modulators of beta-catenin / TCF4 interaction” (AGENCY FOR SCIENCE, TECHNOLOGY AND RESEARCH, priority 2019, dated 2026).

Assays:
CRC2423 = experiment: Viability of primary patient-derived colorectal cancer cell line; format: cell-based
[1] = target: T1, His-tagged human β-cat (134-668) (Homo sapiens, UniProt P35222); experiment: SPR binding to β-cat
T1 construct: His-tagged human β-cat (134-668); made in house; host or cells: E. coli BL21(DE3)
Experimental: BL21(DE3) cells harboring pET-28 β-cat expression vector of His-tagged human β-cat (134-668) were cultured at 37° C. until OD600=0.6-0.8. The cells were then induced with 500 μM isopropyl-β-D-thiogalactopyranoside (IPTG) for 6-8 hr at 23° C. Cells were lysed by sonication in lysis buffer containing 20 mM Tris (pH 8.8), 250 mM NaCl, 2 mM DTT, 5% glycerol, 0.1% Triton X-100, and cOmplete protease inhibitor cocktail (EDTA free, Roche cat. #11873580001). The lysate was incubated with Ni-NTA agarose beads (Qiagen cat. #30210) at 4° C. for 1 hr, and the beads were then washed with lysis buffer containing 20 mM imidazole. Bound protein was eluted with buffer containing 20 mM Tris (pH 8.8), 250 mM NaCl, 0.5 mM tris(2-carboxyethyl)phosphine (TCEP), 5% glycerol, and 250 mM imidazole.
Surface plasmon resonance experiments were performed using a BIACORE T100 (GE Healthcare) on a CM5 series S sensor chip (GE Healthcare cat. #BR-1005-30). His-tagged β-cat (60 kDa, >90% pure based on SDS-PAGE) was immobilized using amine-coupling chemistry. The surfaces of flow cells one and two were activated with a 1:1 mixture of 0.1 M NHS (N-hydroxysuccinimide) and 0.1 M EDC (3-(N,N-dimethylamino) propyl-N-ethylcarbodiimide) at a flow rate of 5 μL/min. […]

β-cat-TCF4 interaction = target: T2, β-cat-TCF4 interaction (Homo sapiens, UniProt P35222, DEL45-45); experiment: Co-immunoprecipitation of β-cat and TCF4 in HCT116 cells; format: cell-based; conditions: 18 hr
T2 construct: endogenous in cells; host or cells: HCT116
Experimental: HCT116 cells were treated for 18 hr with compounds at the indicated concentrations. Cells were lysed on ice in lysis buffer containing 20 mM HEPES, pH 7.5, 137 mM NaCl, 1.5 mM MgCl2, 1 mM EGTA, 1 mM dithiothreitol (DTT), 1% Triton X-100, 10% glycerol, cOmplete protease inhibitor cocktail (Roche cat. #11697498001), and 1 mM Na3VO4. Each sample of cleared protein lysate was incubated overnight at 4° C. with 4 μg anti-β-cat antibody (Sigma cat. #C7207) followed by 1 hr incubation with a 50 μL slurry of Dynabeads Protein G (Invitrogen cat. #10004D) at 4° C. The beads were then washed three times with lysis buffer at 4° C., and the bound protein was eluted by heating the beads with 30 μL (per sample) of SDS sample buffer at 95° C. for 7 min. protein was resolved by SDS-PAGE and blotted onto PVDF membrane (Millipore cat. #IPVH00010). Primary antibodies were incubated overnight at 4° C. and the blots were detected with either IRDye 800CW goat anti-rabbit antibody (LI-COR cat. #926-32211) or IRDye 680RD goat anti-mouse antibody (LI-COR cat. #926-68070) at 1:5000 dilution. Signals were visualized with the LI-COR Odyssey CLx imaging system and bands were quantified using LI-COR Image Studio data analysis software. […]

T1 sequence (P35222 134-668): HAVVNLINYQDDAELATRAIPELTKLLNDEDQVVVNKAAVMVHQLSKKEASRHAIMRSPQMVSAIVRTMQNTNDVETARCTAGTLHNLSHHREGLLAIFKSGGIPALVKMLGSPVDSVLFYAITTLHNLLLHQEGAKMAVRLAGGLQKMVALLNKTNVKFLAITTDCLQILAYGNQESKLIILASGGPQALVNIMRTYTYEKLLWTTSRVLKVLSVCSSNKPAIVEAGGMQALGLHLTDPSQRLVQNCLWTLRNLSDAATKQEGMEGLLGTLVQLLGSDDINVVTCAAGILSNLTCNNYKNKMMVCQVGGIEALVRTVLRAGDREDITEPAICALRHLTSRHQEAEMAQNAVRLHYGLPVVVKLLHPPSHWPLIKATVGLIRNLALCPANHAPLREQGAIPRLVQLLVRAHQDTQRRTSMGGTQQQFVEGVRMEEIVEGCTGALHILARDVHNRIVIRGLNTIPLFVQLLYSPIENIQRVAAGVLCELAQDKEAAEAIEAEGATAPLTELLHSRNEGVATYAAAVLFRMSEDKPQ
T2 sequence (P35222 with tags, fused parts or gaps DEL45-45): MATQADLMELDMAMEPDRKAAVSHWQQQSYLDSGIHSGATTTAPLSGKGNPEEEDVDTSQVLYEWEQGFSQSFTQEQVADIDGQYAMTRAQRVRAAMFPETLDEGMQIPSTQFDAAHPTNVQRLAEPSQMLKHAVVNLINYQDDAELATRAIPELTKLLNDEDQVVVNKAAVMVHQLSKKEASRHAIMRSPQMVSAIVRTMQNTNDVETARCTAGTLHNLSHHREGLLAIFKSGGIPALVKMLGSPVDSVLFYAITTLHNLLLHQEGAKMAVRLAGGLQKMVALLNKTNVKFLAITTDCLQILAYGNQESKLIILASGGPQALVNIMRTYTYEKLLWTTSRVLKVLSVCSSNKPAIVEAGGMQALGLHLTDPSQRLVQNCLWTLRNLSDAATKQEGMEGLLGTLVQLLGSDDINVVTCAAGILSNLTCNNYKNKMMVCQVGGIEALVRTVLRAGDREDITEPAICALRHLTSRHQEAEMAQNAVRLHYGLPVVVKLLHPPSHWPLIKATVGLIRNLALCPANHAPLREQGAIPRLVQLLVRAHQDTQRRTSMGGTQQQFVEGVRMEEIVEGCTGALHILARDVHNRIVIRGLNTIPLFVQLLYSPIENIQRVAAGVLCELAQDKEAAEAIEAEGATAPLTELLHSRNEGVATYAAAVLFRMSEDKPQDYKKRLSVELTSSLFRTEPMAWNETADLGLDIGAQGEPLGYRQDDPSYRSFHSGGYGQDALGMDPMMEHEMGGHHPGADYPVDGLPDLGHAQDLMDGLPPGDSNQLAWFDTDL

CCc1ccc(OCc2nnc(SC3CCCC3=O)n2C(C)c2ccccc2)cc1 (stereo not shown) [GB1874] was tested, and the EC50 (CRC2423) was 30 µM, the Kd ([1]; SPR steady state, n=3, 25° C., read-out: dissociation constant KD) was 76 ± 13 µM and the “Hill slope of the best fit curve” value ([1]; SPR steady-state binding curve) was “greater than 1”. The “β-cat-TCF4 interaction (co-IP)” value (β-cat-TCF4 interaction) was “reduce the β-cat-TCF4 interaction to the same extent as iCRT3”.
